Assay results: US20220389013A1, “PYRIDOPYRIMIDINONE COMPOUNDS AND APPLICATIONS THEREOF” (BeBetter Med Inc., priority 2020, published 2022)

Key:
H23 (KRAS G12C) = assay: Tumor cell proliferation inhibition assay (CellTiter-Glo), H23; assay type: cell-based, Human; conditions: 10% fetal bovine serum
Protocol: The H358, H23 or MIA-Paca2 cells were digested, centrifuged and resuspended, and the cell density was measured with a Scepter automatic cell counter. Cells were diluted to a solution containing 44,000 cells per milliliter, then added to a 96-well culture plate at 90 μL per well. The 96-well plate was placed in a 5% CO2 incubator at 37° C., and after the cells were cultured for 24 hours, different concentrations of the compounds to be tested were added. Cells were incubated with compounds in the presence of 10% fetal bovine serum for 72 hours. The inhibition of cell growth was assessed by measuring ATP levels by using the CellTiter-Glo Luminescent Cell Viability Assay Kit (details in manufacturer's instructions). In brief, 30 μL of CellTiter-Glo reagent was added to each well and the plate was shaken for 10 minutes to induce cell lysis, then the fluorescent signal was detected and recorded with a Fluoroskan Ascent FL (Thermo). Maximum signal values were obtained from cells treated with DMSO for 72 hours. Minimum signal values were obtained with medium only (zero cell number). Inhibition rate %=(maximum signal value-compound signal value)/(maximum signal value-minimum signal value)×100%. Data were processed by using Graphpad prism5 software. IC50 values were calculated using a sigmoidal dose-response curve.

H358 (KRAS G12C) = assay: Tumor cell proliferation inhibition assay (CellTiter-Glo), H358; assay type: cell-based, Human; conditions: 10% fetal bovine serum
How it was run: (§1)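 Growth was read as ATP by CellTiter-Glo luminescence, with inhibition normalised to DMSO (max) and medium-only (min) wells. IC50 came from sigmoidal dose-response fits.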

MIA-Paca2 (KRAS G12C) = assay: Tumor cell proliferation inhibition assay (CellTiter-Glo), MIA-Paca2; assay type: cell-based, Human; conditions: 10% fetal bovine serum
How it was run: as §1

KRAS-G12C/SOS1 = molecular target: T1, KRAS-G12C/SOS1 (Homo sapiens, UniProt P01116, G12C); assay: HTRF KRAS-G12C/SOS1 binding assay; conditions: 2 hours room temperature
T1 construct: purchased Cisbio #63ADK000CB16PEG
Protocol: 2) Diluted the compound to be tested with diluent into 10× stock solution, starting from a concentration of 10000 nM, diluting in 4-fold gradient and a total of 6 concentration gradients.
After incubated at room temperature for 15 minutes, added pre-mixed 5 uL of anti-Tag1-Tb^3+ and 5 uL of anti-Tag2-XL665. Sealed the plate and incubated at room temperature for 2 hours.
Data were processed by using Graphpad prism software.

[1] = Caco-2 cell transmembrane transport experiment; conditions: human; for Papp B→A at 90 min, 10 μM: basolateral to apical
Text: In this experiment, a monolayer of Caco-2 cells was used to assess drug penetration. […] The apparent permeability coefficient from apical to basolateral (Papp A-B) and the basolateral to apical permeability coefficient (Papp B-A) of compounds represent the ability of the compound to be transported in both directions, respectively.
Apparent permeability coefficient (Papp)=(the volume of the receiver chamber/the filter surface area×culture time))×(the drug concentration of receiver chamber at the end of culture/(the drug concentration of donor chamber at the initial culture×dilution factor)
In this experiment, Millipore cell culture plates (PSHT 010 R5): membrane area=0.7 cm^2, recipient side volume=0.8 mL (A-to-B) or 0.4 mL (B-to-A), incubation time=90 minutes.

[2] = Pharmacokinetic (PK) experiment in rats by gavage; assay type: in vivo; conditions: rat, plasma, po, male SD rats, 20 mg/kg; for AUC(0-t): read-out: AUC0-24
Protocol: Male SD rats, weighing 180-250 g, were fasted overnight before the test and stomach administrated with the test compound at 20 mg/kg. 15 minutes, 30 minutes, and 1, 2, 4, 6, 8, and 24 hours after administration, blood was taken from the end of the tail of the fracture, about 0.3 mL per time point, then placed in a centrifuge tube containing K2-EDTA, and centrifuged (2000 g, 10 min, at 4° C.). Plasma was collected and stored in an ultra-low temperature freezer at −80° C. 50 μL of plasma samples were vortexed with 135 μL of acetonitrile (containing 1 μg/mL internal standard) for protein precipitation and centrifuged, and the supernatant was collected for LC-MS/MS analysis.
After the rats oral administrated with the Pyridopyrimidinone compounds provided by the present disclosure, the absorption is good, and the blood exposure is relatively high. […] Cmax refers to the maximum plasma concentration, T1/2 is the half-life, AUC0-24 refers to the area under the 0-24 hour time-concentration curve, and AUC0-inf refers to the area under the 0-Inf time-concentration curve.

T1 sequence (P01116 1-188 isoform P01116-2 G12C): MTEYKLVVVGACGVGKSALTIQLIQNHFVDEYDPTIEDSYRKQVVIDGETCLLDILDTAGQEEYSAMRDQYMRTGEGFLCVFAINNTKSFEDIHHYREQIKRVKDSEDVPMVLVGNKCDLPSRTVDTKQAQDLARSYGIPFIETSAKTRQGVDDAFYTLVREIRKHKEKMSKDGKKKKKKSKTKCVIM

SMILES	IC50 (H23 (KRAS G12C); 72 hours) [nM]	melting point [°C]	IC50 (H358 (KRAS G12C); 72 hours) [nM]	IC50 (MIA-Paca2 (KRAS G12C); 72 hours) [nM]	IC50 (KRAS-G12C/SOS1) [nM]	AUC(0-inf) [2] [ng·h/mL]	Cmax [2] [ng/mL]	Tmax [2] [h]	half-life [2] [h]	AUC(0-t) [2] [ng·h/mL]	IC50 (H358 (KRAS G12C); Homo sapiens, NCI-H358, 72 h) [nM]	IC50 (MIA-Paca2 (KRAS G12C); Homo sapiens, MIA PaCa-2, 72 h) [nM]	further results
C=CC(=O)N1C[C@H](C)N(c2nc(=O)n(-c3c(C)ccnc3C(C)C)c3nc(-c4c(F)c(F)cc5ccoc45)c(F)cc23)C[C@H]1C (atropisomer, axis not shown; (P)) [Compound 91-2, 4-((2S,5R)-4-acryloyl-2,5-dimethylpiperazin-1-yl)-7-(5,6-difluorobenzofuran-7-yl)-6-fluoro-1(P)-(2-isopropyl-4-methylpyridin-3-yl)pyrido[2,3-d]pyrimidin-2(1H)-one]	50 to 100	161 to 173	> 500	> 500									
C=CC(=O)N1C[C@H](C)N(c2nc(=O)n(-c3c(C)ccnc3C(C)C)c3nc(-c4c(F)c(F)cc5ccoc45)c(Cl)cc23)C[C@H]1C (atropisomer, axis not shown; (P)) [Compound 104-2, 4-((2S,5R)-4-acryloyl-2,5-dimethylpiperazin-1-yl)-6-chloro-7-(5,6-difluorobenzofuran-7-yl)-1(P)-(2-isopropyl-4-methylpyridin-3-yl)pyrido[2,3-d]pyrimidin-2(1H)-one]	10 to 50	153 to 162	100 to 500	100 to 500									
C=CC(=O)N1CCN(c2nc(=O)n(-c3c(C)ccnc3C(C)C)c3nc(-c4c(F)ccc5ccoc45)c(F)cc23)[C@@H](C)C1 (single isomer, unassigned) [Compound 70-1]	< 10		10 to 50	10 to 50	50 to 100	7910	3530	1	2.77	7890			efflux ratio at 90 min, 10 μM ([1]; Caco-2, pH 7.4): 1.19; Papp A→B at 90 min, 10 μM ([1]; Caco-2, pH 7.4, Papp A-B Sample_01, 10 μM, pH 7.4, 37° C., 90 min, apical to basolateral): 19 ×10⁻⁶ cm/s; Papp A→B at 90 min, 10 μM ([1]; Caco-2, pH 7.4, Papp A-B Sample_02, 10 μM, pH 7.4, 37° C., 90 min, apical to basolateral): 18.8 ×10⁻⁶ cm/s; Papp A→B at 90 min, 10 μM ([1]; Caco-2, pH 7.4, Papp A-B mean value, 10 μM, pH 7.4, 37° C., 90 min, apical to basolateral): 18.9 ×10⁻⁶ cm/s; Papp B→A at 90 min, 10 μM ([1]; Caco-2, pH 7.4, Papp B-A Sample_01, 10 μM, pH 7.4, 37° C., 90 min): 21.1 ×10⁻⁶ cm/s; Papp B→A at 90 min, 10 μM ([1]; Caco-2, pH 7.4, Papp B-A Sample_02, 10 μM, pH 7.4, 37° C., 90 min): 23.7 ×10⁻⁶ cm/s; Papp B→A at 90 min, 10 μM ([1]; Caco-2, pH 7.4, Papp B-A mean value, 10 μM, pH 7.4, 37° C., 90 min): 22.4 ×10⁻⁶ cm/s; Papp A→B at 90 min, 10 μM ([1]; Caco-2, pH 7.4, apparent permeability coefficient Papp A-B, Caco-2): > 10 ×10⁻⁶ cm/s
C=CC(=O)N1CCN(c2nc(=O)n(-c3c(C)ccnc3C(C)C)c3nc(-c4c(F)ccc5ccoc45)c(F)cc23)[C@@H](C)C1 (single isomer, unassigned) [Compound 70-2]	50 to 100		100 to 500	> 500	> 1000								
C=CC(=O)N1CCN(c2nc(=O)n(-c3c(C)ccnc3C(C)C)c3nc(-c4c(F)ccc5ccoc45)c(Cl)cc23)[C@@H](C)C1 (single isomer, unassigned) [Compound 73-2]	< 10		10 to 50	100 to 500	100 to 500								
C=CC(=O)N1CCN(c2nc(=O)n(-c3c(C)ccnc3C(C)C)c3nc(-c4c(F)c(F)cc5ccoc45)c(F)cc23)[C@@H](C)C1 (single isomer, unassigned) [Compound 74-1]					50 to 100	6220	3180	0.83	5.3	6200	10 to 50	10 to 50	IC50 (H23 (KRAS G12C); Homo sapiens, 72 h): < 10 nM
C=CC(=O)N1C[C@H](C)N(c2nc(=O)n(-c3c(C)ccnc3C(C)C)c3nc(-c4c(F)ccc5ccoc45)c(F)cc23)C[C@H]1C (single isomer, unassigned) [Compound 89-1]		275 to 277			50 to 100	9020	3200	1	3.1	9010	10 to 50	10 to 50	
C=CC(=O)N1CCN(c2nc(=O)n(-c3c(C)ccnc3C(C)C)c3nc(-c4c(F)ccc5ccoc45)c(F)cc23)[C@@H](C)C1 [Compound 70, 4-((S)-4-acryloyl-2-methylpiperazin-1-yl)-6-fluoro-7-(6-fluorobenzofuran-7-yl)-1-(2-isopropyl-4-methylpyridin-3-yl)pyrido[2,3-d]pyrimidin-2(1H)-one]					100 to 500						10 to 50	10 to 50	
C=CC(=O)N1CCN(c2nc(=O)n(-c3c(C)ccnc3C(C)C)c3nc(-c4c(F)ccc5ccoc45)c(Cl)cc23)[C@@H](C)C1 [Compound 73, 4-((S)-4-acryloyl-2-methylpiperazin-1-yl)-6-chloro-7-(6-fluorobenzofuran-7-yl)-1-(2-isopropyl-4-methylpyridin-3-yl)pyrido[2,3-d]pyrimidin-2(1H)-one]					< 50	8640	3360	1	3.97	8630	< 10	< 10	IC50 (H23 (KRAS G12C); Homo sapiens, 72 h): < 10 nM
C=CC(=O)N1CCN(c2nc(=O)n(-c3c(C)ccnc3C(C)C)c3nc(-c4c(F)ccc5c4OCC5)c(F)cc23)[C@@H](C)C1 [Compound 79, 4-((S)-4-acryloyl-2-methylpiperazin-1-yl)-6-fluoro-7-(6-fluoro-2,3-dihydrobenzofuran-7-yl)-1-(2-isopropyl-4-methylpyridin-3-yl)pyrido[2,3-d]pyrimidin-2(1H)-one]					100 to 500						10 to 50	10 to 50	
C=CC(=O)N1CCN(c2nc(=O)n(-c3c(C)ccnc3C(C)C)c3nc(-c4c(F)ccc5c4OCO5)c(Cl)cc23)[C@@H](C)C1 [Compound 97, 4-((S)-4-acryloyl-2-methylpiperazin-1-yl)-6-chloro-7-(5-fluorobenzo[d][1,3]dioxol-4-yl)-1-(2-isopropyl-4-methylpyridin-3-yl)pyrido[2,3-d]pyrimidin-2(1H)-one]					50 to 100	10400	4660	1	5.98	10400	< 10	10 to 50	
C=CC(=O)N1CCN(c2nc(=O)n(-c3c(C(C)C)ccnc3C(C)C)c3nc(-c4c(F)ccc5ccoc45)c(Cl)cc23)[C@@H](C)C1 [Compound 122, 4-((S)-4-acryloyl-2-methylpiperazin-1-yl)-6-chloro-1-(2,4-diisopropylpyridin-3-yl)-7-(6-fluorobenzofuran-7-yl)pyrido[2,3-d]pyrimidin-2(1H)-one]		162 to 173			< 50	6000	1630	1.67	3.64	5990	< 10	< 10	
